What was measured:
[1] = system: mPB and CB derived HSCs; test: Transplantation of cultured human CD34+ cells into NOD/SCID mice (engraftment); type: in vivo, human cells in NOD/SCID mice; conditions: HSCs cultured at 1 micromolar, mPB 4 days, CB 21 days
Procedure: Transplantation of human CD34^+ cells into NOD.CB 17-Prkdc^scid mice (NOD/SCID): To assess the in vivo repopulating capacity of CD34^+ cells and their cultured progeny, uncultured CD34^+ or the progenies of cultured CD34^+ cells after 4 days (mPB) or 21 days (CB) with vehicle or a test compound were injected intravenously via the retro-orbital route into sub-lethally irradiated (3.0 Gy) 8- to 10-week-old NOD/SCID (for mPB HSC experiments) or NOD/SCIDgc−/− (for CB HSC experiments) mice. To monitor engraftment blood was drawn weekly via the retro-orbital and treated with erythrocyte lysis solution (Qiagen, Valencia, Calif.) to remove red blood cells, washed with staining media, and analyzed by flow Cytometry. Engraftment was measured by detection of anti-human CD45^+ cells in the blood. The mice are sacrificed at 10 weeks post-transplantation; BM is collected from both femurs and tibiae. BM cells are washed in staining media and stained with anti-human antibodies. Following incubation, the suspension is treated with erythrocyte lysis solution (Qiagen, Valencia, Calif.) to remove red blood cells, washed with staining media, and analyzed by flow Cytometry, as described earlier.

[2] = system: mPB-derived CD34+ cell; test: 7 day culture with AHR antagonists, expansion of CD34+ cells; type: cell-based, human; conditions: 0.75 μM; 7 days
Procedure: To further explore the role of AHR signaling in HSCs two other AHR antagonists (alpha-naphthoflavone and CH-223191) were tested. Both compounds lead to dose dependent increases in the number of CD34^+ cells when cultured with mPB-derived CD34^+ cell for 7 days: inclusion of 1 μM CH223191 afforded a 2.2-fold expansion of CD34^+ cells; 0.75 μM α-naphthoflavone afforded a 1.9-fold expansion of CD34^+ cells while 0.75 μM Example 1 afforded a 3.4-fold expansion of total CD34^+ cells. […] Forty-eight hours following transduction, CD34+GFP^+ cells were purified by cell sorting and the levels of AHR were determined by qPCR. Both AHR targeting shRNAs led to decreases in AHR expression following transduction (81% with sh111 and 51% with sh242). These decreases were not seen in cells lacking GFP or in cells transduced with control virus.

[3] = target: T1, AHR (Mus musculus, UniProt P30561); test: Dioxin induced AHR dependent transcription, murine cells; type: cell-based
T1 construct: endogenous in cells; host or cells: unnamed murine cells
T1 sequence (P30561 10-848): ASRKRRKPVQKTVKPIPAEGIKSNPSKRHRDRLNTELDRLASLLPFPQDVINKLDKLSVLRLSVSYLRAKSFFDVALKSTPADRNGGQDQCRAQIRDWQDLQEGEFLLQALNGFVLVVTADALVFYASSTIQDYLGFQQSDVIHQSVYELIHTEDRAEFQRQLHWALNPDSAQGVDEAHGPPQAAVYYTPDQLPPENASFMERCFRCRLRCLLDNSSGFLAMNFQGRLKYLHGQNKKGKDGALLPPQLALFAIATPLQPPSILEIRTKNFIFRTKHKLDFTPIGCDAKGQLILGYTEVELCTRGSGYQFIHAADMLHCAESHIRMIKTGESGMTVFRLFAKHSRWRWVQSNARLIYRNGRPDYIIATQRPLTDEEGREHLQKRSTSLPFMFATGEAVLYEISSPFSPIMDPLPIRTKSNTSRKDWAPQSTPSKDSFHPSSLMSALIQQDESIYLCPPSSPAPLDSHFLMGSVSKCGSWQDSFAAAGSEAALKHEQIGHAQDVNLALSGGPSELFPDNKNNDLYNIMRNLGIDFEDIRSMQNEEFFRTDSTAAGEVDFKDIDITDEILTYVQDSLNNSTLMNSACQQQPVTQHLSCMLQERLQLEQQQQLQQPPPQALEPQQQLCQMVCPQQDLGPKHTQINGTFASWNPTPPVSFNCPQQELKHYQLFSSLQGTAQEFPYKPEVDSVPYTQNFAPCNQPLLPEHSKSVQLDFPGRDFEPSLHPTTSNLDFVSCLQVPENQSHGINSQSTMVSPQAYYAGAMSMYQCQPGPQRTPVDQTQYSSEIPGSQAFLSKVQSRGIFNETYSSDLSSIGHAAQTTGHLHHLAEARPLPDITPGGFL
Procedure: Further, the ability of Example 1 to block 2,3,7,8-tetrachlorodibenzo-p-dioxin (TCDD, dioxin)-mediated CYP1B1 mRNA expression by qPCR in mPB-derived CD34^+ cells was determined. Treatment with TCDD (3 nM) caused a 4.5-fold increase in the level of CYP1B1 mRNA compared with the vehicle control (0.01% toluene). […] To determine the effects of Example 1 in AHR transcription the ability of Example 1 to inhibit a dioxin-induced AHR dependent luciferase reporter gene assay was tested.

[4] = system: murine HSC; test: Activity on murine HSC; type: cell-based

CC(C)n1cnc2c(NCCc3ccc(O)cc3)nc(-c3csc4ccccc34)nc21 [Example 1, 4-(2-(2-(benzo[b]thiophen-3-yl)-9-isopropyl-9H-purin-6-ylamino)ethyl)phenol] was tested, and the “percentage of human cells 10 weeks after engraftment” value [1] was “statistically significant increase”, the “expansion of CD34+ cells” value [2] was 3.4 fold and the “agonist activity (AHR dependent transcription)” value [3] was “only weak agonist activity”. For the same molecule, the “inhibition of dioxin induced transcription” value [3] was “only weakly inhibited” and the “activity on murine HSC” value [4] was “lack of activity”.

— patent US9580426B2, “Compounds that expand hematopoietic stem cells” (Novartis AG, priority 2008, dated 2017)
